Data taken from patent US20180201594A1, “Compound pac-1 or salt thereof and pharmaceutical composition comprising same” (priority 2015, published 2018).
Values after ≈ are worked out from the molar mass of the structure shown. Marks after values point to notes of the source that are not given here.

How the values were obtained:
[1] = Solubility comparison of ZYS-1 and PAC-1 needle crystal (HPLC); assay type: physicochemical; settings: Water, room temperature
NF-κB = NF-κB protein expression in HGC-27 cells (immunofluorescence); assay type: cell-based; settings: n = 6
Method: (§1) The sterilized cell transfer membrane was taken and placed into a 24-well plate, which was seeded with 1 mL (1×10^5 cells/mL) cell suspension, and cultured for 24 h. Drug-containing medium was added, The negative control groups and administration groups were set, with the experimental groups intervened for 24-48 h. The plate was washed with PBS, and fixed with 4% paraformaldehyde for 15 min. It was treated with 0.1% TritonX-100, and washed with PBS, blocked with 1:10 diluted normal serum blocking solution for 15 min. The plate was added 1:100 diluted primary antibody, placed at 4° C. overnight. The plate was washed with PBS, to which 1:100 diluted secondary antibodies was added and incubated at room temperature for 30 min. The plate was washed with PBS, to which 1:100 diluted SABC-FITC was added, and re-incubated at room temperature for additional 30 min. The unbound FITC was washed with PBS. We observed and taken pictures under fluorescence microscope, and analyzed the fluorescence intensity by Bioflux Montage software. 6 fields were selected randomly under microscope for each group and the integral optical density value of cells was calculated.

HUVEC = HUVEC tubule formation assay; assay type: cell-based
Method: Tubule formation assay: the matrigel was thawed at 4° C. overnight, which was 1:1 diluted with serum-free ECM medium and coated onto 96-well plates. The diluted matrigel was sucked by precooled pipette gun tip, which was added into pre-cooled 96-well plates, with 50 μL per well. The matrigel was placed on ice for 5 min to make the matrigel surface level, and then the 96-well plates were put into a cell incubator at 37° C. for 1 h to cause gel coagulation. Trypsinize cells, the cells were counted and diluted with ECM medium. The cell density was adjusted to […], and the cells were seeded into coated 96-well plates with 100 μL per well. According to the MTT results, the ZYS-1 solution at different concentrations were formulated. 100 μL of the solutions were taken and added into the cell-seeded wells to make the final concentration at 2, 1, 0.5 μM. At the same time, the positive control was set as recombinant human endostatin (Endostar) and the negative control as without drugs but medium only. Each concentration of the experimental groups and the control groups all were set three replicates, which were placed and cultured in the incubator. After culturing 18 h, the culture was observed under microscope and taken the pictures to record the circumference, area of the generated tubes and the number of nodes as indicators for the formation of tubule. […]

[2] = system: HGC-27, K562/A02, A549, HT-1080 cells; assay: Tumor cell proliferation (MTT or CCK-8); assay type: cell-based, human; settings: 48 h, FIG. 5-8
From the text: Experimental cells: gastric cancer cell line HGC-27, non-small cell lung cancer A549, human chronic myeloid leukemia cells doxorubicin resistant strains K562/A02, human fibrosarcoma HT-1080, human chronic myeloid leukemia cell K562.
Experimental materials: PAC-1 needle crystal (prepared according to the method described in Quinn P. Peterson et al., J. Med. Chem. 2009, 52, 5721-5731), MTT solution (Amresco specification: 1 g, batch number: 2035B358), DMSO (Analytical Pure, Beijing Chemical Factory), 96-well plates (Corning), CCK-8 (Japanese Tongren Chemical Research Institute, specification: 500test, batch number: DJ706), fetal bovine serum was the product from the United States GIBCO, batch number: 608759, RPMI-1640 is the product of Hyclone, batch number: NWK0492, 0.25% Trypsin-EDTA is the product from the United States GIBCO company, batch number: 10T774768, DMSO: USA Sigma Corporation.
The cells in logarithmic growth phase were collected. The cells was digested and the cell density was adjusted into 1-5×10^5 cells/mL, 100 μL per well in 96-well culture plate. The plated was cultured in a incubator with 37 ? , 5% CO2 saturated humidity. After adherent, different concentrations of PAC-1 and ZYS-1 were added for dosing groups. 6 dosage groups were set, with at least three parallel wells set in each group. […]

VEGF = VEGF protein expression in HGC-27 cells (immunofluorescence); assay type: cell-based; settings: n = 6
Method: as §1

[3] = Solubility comparison of ZYS-1 and PAC-1 needle crystal (HPLC); assay type: physicochemical; settings: room temperature
Method: The appropriate amounts of ZYS-1 and PAC-1 needle crystal were dissolved into the appropriate amount of methanol, absolute ethanol, 95% ethanol, acetonitrile, ethyl ether, ethyl acetate, propanol, acetone, respectively, and sonicated for 1 hour, then left at room temperature for 24 hours to obtain the oversaturated solution. After centrifugation at 4000 r/min for 5 min, the supernatant was diluted appropriately and filtered through a 0.45 μm needle filter. The concentration was determined by HPLC and the solubility was calculated.

HGC-27 cells = assay: Two-dimensional migration (cell scratch assay); assay type: cell-based; settings: n = 3
Method: HGC-27 cells in logarithmic growth phase were collected. The cell with density of 5×10^5 cells/mL was spread onto 24-well plates (0.5 mL per well). RMPI-1640 culture medium with 10% fetal bovine serum was added and cultured for 24 h to form monolayer cells. The monolayer cells were scratched in a line by 20 μL pipette gun tip, which was washed with PBS three times. Then, drug-containing media with 2% fetal bovine serum s were added, which concentrations were 2 μM, 4 μM, respectively. The media were cultured in the incubator with 37 ? , 5% CO2 saturated humidity. Sampled at 0, 4, 8, 12 h and took the pictures. The area where cells were migrated from scratch edge to scratch within the same field was counted by software.

C=CCc1cccc(/C=N/NC(=O)CN2CCN(Cc3ccccc3)CC2)c1O [ZYS-1, 1-Piperazineacetic acid, 4-(phenylmethyl)-2-[[2-hydroxy-3-(2-propen-1-yl)phenyl]methylene]]
Solubility [1]: 5.6 µg/mL (≈ 0.0143 mM)
NF-κB protein expression (integral optical density value) (NF-κB; 4 μM): 43.83 ± 1.06
NF-κB protein expression (integral optical density value) (NF-κB; 8 μM): 40.94 ± 0.46
inhibition of tubule formation compared with positive control 2.5 μg/mL Endostar (HUVEC; 2 μM ZYS-1 group): similar
effect on formation of endothelial cell tubules induced in vitro (HUVEC; 2, 1, 0.5 μM, 18 h): strong inhibitory effect
antitumor efficacy (cell proliferation) compared with PAC-1 needle crystal [2]: stronger antitumor efficacy than PAC-1 needle crystal
VEGF protein expression (integral optical density value) (VEGF; 4 μM): 31.17 ± 0.24
VEGF protein expression (integral optical density value) (VEGF; 8 μM): 30.51 ± 0.32
Solubility ([3]; 95% ethanol): 18.51 mg/mL (≈ 47.2 mM)
Solubility ([3]; Absolute ethanol): 23.53 mg/mL (≈ 59.9 mM)
Solubility ([3]; Acetone): 128.97 mg/mL (≈ 329 mM)
Solubility ([3]; Acetonitrile): 28.74 mg/mL (≈ 73.2 mM)
Solubility ([3]; Chloroform): 344.73 mg/mL (≈ 878 mM)
Solubility ([3]; Diethyl ether): 6.31 mg/mL (≈ 16.1 mM)
Solubility ([3]; Ethyl acetate): 40.08 mg/mL (≈ 102 mM)
Solubility ([3]; Methanol): 35.15 mg/mL (≈ 89.6 mM)
Solubility ([3]; Propanol): 25.55 mg/mL (≈ 65.1 mM)
area of cell migration into scratch (HGC-27 cells; 2 μM, 4 h): 0.12 ± 0.01 mm^2
area of cell migration into scratch (HGC-27 cells; 2 μM, 8 h): 0.16 ± 0.02 mm^2
area of cell migration into scratch (HGC-27 cells; 2 μM, 12 h): 0.20 ± 0.02 mm^2
area of cell migration into scratch (HGC-27 cells; 4 μM, 4 h): 0.04 ± 0.01* mm^2
area of cell migration into scratch (HGC-27 cells; 4 μM, 8 h): 0.07 ± 0.01* mm^2
area of cell migration into scratch (HGC-27 cells; 4 μM, 12 h): 0.08 ± 0.02** mm^2
